Measured values published in the supplement of paper PMC11208160.

Test: recombinant UMI read abundance after kanamycin selection (control-corrected) (log10(CPM+1)); higher = more efficient recombination; extreme values may be limits of the assay; sequences stand for … in AGTGCAGAGAAAATCGGCCAGTTTTCTCTGCCTGCAGTCCGCATGCCGTGGGACCCCTTGGGTTCTAACCTGTTGCCTAGATTTATGCAGCGGACTGCCTTTCTCCCAAAGTGATAAACCGG…AGGTTGGTTTCACT; site = the 11-nt donor
Method in brief: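 Two replicates each of selected and unselected plating were used in this pooled Escherichia coli screen of donor and donor-binding-loop pairs for the IS621 bridge recombinase. Selection was with IPTG (0.07 mM) and kanamycin. Counts of recombinant UMIs, amplified across the donor–target junction, were converted to CPM, averaged, scaled by control-derived factors and reported as log10(CPM+1).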
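Also: IS621 bridge recombinase in Escherichia coli cells against a fixed T5 target plasmid.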

| Sequence | recombinant UMI read abundance (log10) |
| --- | --- |
| CCCATATCATGGACCGGTTTTCCCGGTAATCCGTATTTGTC (site CCCCTATCTGA) | 0 |
| CCCATATCATGGACCGGTTTTCCCGGTAATCCGTATTTGTC (site CCCGTATCTGA) | 0 |
| CCCATATCATGGACCGGTTTTCCCGGTAATCCGTATTTGTC (site CCCTTATCTGA) | 0.395 |
| CCCATATCATGGACCGGTTTTCCCGGTAATCCGTATTTGTC (site CCGATATCTGA) | 0 |
| CCCATATCATGGACCGGTTTTCCCGGTAATCCGTATTTGTC (site CCTATATCTGA) | 0 |
| CCCATATCATGGACCGGTTTTCCCGGTAATCCGTATTTGTC (site CGCATATCTGA) | 0 |
| CCCATATCATGGACCGGTTTTCCCGGTAATCCGTATTTGTC (site CTCATATCTGA) | 0 |
| CCCATATCATGGACCGGTTTTCCCGGTAATCCGTATTTGTC (site GCCATATCTGA) | 0 |
| CCCATATCATGGACCGGTTTTCCCGGTAATCCGTATTTGTC (site TCCATATCTGA) | 0 |
| CCCCAAACATGGACCGGTTTTCCCGGTAATCCGTATTTGTA (site CCCCAAACTTA) | 0.19 |
| CCCCAAACATGGACCGGTTTTCCCGGTAATCCGTATTTGTA (site CCCCACACTTA) | 0.0105 |
| CCCCAAACATGGACCGGTTTTCCCGGTAATCCGTATTTGTA (site CCCCAGACTTA) | 0.00667 |
| CCCCAAACATGGACCGGTTTTCCCGGTAATCCGTATTTGTA (site CCCCATACTTA) | 0.102 |
| CCCCACCCATGGACCGGTTTTCCCGGTAATCCGTATTTGTA (site CCCCACACTTA) | 0.0263 |
| CCCCACCCATGGACCGGTTTTCCCGGTAATCCGTATTTGTA (site CCCCACCCTTA) | 0.00842 |
| CCCCACCCATGGACCGGTTTTCCCGGTAATCCGTATTTGTA (site CCCCACGCTTA) | 0.0484 |
| CCCCACCCATGGACCGGTTTTCCCGGTAATCCGTATTTGTA (site CCCCACTCTTA) | 1.78 |

| Sequence | recombinant UMI read abundance (log10) |
| --- | --- |
| CCCCACTCATGGACCGGTTTTCCCGGTAATCCGTATTTGAC (site CCCCACTCTGT) | 1.04 |
| CCCCATACATGGACCGGTTTTCCCGGTAATCCGTATTTGTA (site CCCCAAACTTA) | 0 |
| CCCCATACATGGACCGGTTTTCCCGGTAATCCGTATTTGTA (site CCCCACACTTA) | 0.0183 |
| CCCCATACATGGACCGGTTTTCCCGGTAATCCGTATTTGTA (site CCCCAGACTTA) | 0 |
| CCCCATACATGGACCGGTTTTCCCGGTAATCCGTATTTGTA (site CCCCATACTTA) | 0.512 |
| CCCCGTCCATGGACCGGTTTTCCCGGTAATCCGTATTTGCA (site CCCAGTCCTTG) | 0 |
| CCCCGTCCATGGACCGGTTTTCCCGGTAATCCGTATTTGCA (site CCCCGTCCTTG) | 0.809 |
| CCCCGTCCATGGACCGGTTTTCCCGGTAATCCGTATTTGCA (site CCCGGTCCTTG) | 0.0123 |
| CCCCGTCCATGGACCGGTTTTCCCGGTAATCCGTATTTGCA (site CCCTGTCCTTG) | 0.00689 |
| CCCCTCCCATGGACCGGTTTTCCCGGTAATCCGTATTTGCG (site CCCCTCCCTCG) | 0.014 |
| CCCGACACATGGACCGGTTTTCCCGGTAATCCGTATTTGTA (site CCCAACACTTA) | 0.221 |
| CCCGACACATGGACCGGTTTTCCCGGTAATCCGTATTTGTA (site CCCCACACTTA) | 0.00237 |
| CCCGACACATGGACCGGTTTTCCCGGTAATCCGTATTTGTA (site CCCGACACTTA) | 0.974 |
| CCCGACACATGGACCGGTTTTCCCGGTAATCCGTATTTGTA (site CCCTACACTTA) | 0.0106 |
| CCCGCGTCATGGACCGGTTTTCCCGGTAATCCGTATTTGTC (site CCCGCGTCTGA) | 0.515 |
| CCCGGTACATGGACCGGTTTTCCCGGTAATCCGTATTTGCA (site CCCGGTACTTG) | 0.751 |
| CCCGGTACATGGACCGGTTTTCCCGGTAATCCGTATTTGCA (site CCCGGTCCTTG) | 0 |
